Legend:
Assay in all cases: biochemical
Set-up in all cases: species or system HEK293/K-562/placenta mixed human extract; Kinobeads chemoproteomic competition binding, quantified by TMT LC-MS/MS, dose response up to 20 uM
[1] = biological target: PRKCZ (Homo sapiens, UniProt Q05513)
[2] = biological target: KDR (Homo sapiens, UniProt P35968)
[3] = biological target: MAPK9 (Homo sapiens, UniProt P45984)
[4] = biological target: FES (Homo sapiens, UniProt P07332)
[5] = biological target: CSNK1A1 (Homo sapiens, UniProt P48729)
[6] = biological target: TEK (Homo sapiens, UniProt Q02763)
[7] = biological target: NRK (Homo sapiens, UniProt Q7Z2Y5)
[8] = biological target: PAK4 (Homo sapiens, UniProt O96013)
PAK4, sequence (O96013 whole entry): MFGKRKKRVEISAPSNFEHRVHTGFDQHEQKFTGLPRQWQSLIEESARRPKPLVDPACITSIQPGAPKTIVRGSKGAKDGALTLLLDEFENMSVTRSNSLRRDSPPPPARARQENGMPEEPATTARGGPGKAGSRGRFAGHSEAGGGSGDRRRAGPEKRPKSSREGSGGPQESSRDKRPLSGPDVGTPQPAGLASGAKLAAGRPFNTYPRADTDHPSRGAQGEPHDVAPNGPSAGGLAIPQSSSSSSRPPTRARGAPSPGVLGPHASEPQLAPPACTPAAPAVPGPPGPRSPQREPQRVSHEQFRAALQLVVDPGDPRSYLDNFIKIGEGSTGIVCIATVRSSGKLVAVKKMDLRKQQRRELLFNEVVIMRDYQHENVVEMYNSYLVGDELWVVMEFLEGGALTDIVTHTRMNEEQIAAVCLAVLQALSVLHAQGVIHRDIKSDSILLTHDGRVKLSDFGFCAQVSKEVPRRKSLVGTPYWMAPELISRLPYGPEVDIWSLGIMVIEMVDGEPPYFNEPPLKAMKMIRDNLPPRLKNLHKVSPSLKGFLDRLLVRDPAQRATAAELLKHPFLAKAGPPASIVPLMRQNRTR

[9] = biological target: MAPK7 (Homo sapiens, UniProt Q13164)
MAPK7, sequence (Q13164 whole entry): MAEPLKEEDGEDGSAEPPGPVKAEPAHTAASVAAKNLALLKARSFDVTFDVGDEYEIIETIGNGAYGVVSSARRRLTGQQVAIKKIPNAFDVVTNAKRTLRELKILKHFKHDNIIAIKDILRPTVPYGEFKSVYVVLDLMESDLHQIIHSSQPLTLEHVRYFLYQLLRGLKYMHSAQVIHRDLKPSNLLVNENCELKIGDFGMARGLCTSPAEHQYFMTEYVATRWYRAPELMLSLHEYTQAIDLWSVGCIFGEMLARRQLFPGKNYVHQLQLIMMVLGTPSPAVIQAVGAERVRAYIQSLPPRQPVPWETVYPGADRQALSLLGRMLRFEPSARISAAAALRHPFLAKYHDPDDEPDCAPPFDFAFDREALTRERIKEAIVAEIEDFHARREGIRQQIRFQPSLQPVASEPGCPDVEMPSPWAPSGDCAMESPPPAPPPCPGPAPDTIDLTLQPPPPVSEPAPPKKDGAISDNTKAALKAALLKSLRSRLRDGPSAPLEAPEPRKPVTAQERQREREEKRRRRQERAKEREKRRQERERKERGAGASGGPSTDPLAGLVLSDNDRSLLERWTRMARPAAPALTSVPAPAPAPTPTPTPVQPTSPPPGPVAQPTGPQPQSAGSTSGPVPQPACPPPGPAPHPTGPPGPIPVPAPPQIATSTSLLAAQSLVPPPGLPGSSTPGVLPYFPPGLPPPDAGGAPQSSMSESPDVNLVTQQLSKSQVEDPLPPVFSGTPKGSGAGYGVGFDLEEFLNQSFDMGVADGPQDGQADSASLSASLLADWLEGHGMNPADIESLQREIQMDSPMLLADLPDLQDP

[10] = biological target: CAMKK1 (Homo sapiens, UniProt Q8N5S9)
CAMKK1, sequence (Q8N5S9 whole entry): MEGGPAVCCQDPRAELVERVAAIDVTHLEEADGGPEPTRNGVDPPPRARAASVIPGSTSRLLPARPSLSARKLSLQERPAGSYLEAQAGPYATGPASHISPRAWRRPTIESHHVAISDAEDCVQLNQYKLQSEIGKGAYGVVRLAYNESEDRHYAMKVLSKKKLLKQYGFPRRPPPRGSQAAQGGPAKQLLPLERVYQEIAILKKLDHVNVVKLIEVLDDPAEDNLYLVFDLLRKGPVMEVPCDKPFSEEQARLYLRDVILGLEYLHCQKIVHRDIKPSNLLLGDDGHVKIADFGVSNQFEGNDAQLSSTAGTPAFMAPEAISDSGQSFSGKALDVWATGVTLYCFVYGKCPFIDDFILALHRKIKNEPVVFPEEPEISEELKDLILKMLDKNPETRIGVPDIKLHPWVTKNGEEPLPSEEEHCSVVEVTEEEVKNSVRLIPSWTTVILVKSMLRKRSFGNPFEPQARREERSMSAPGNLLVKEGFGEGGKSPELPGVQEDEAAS

[11] = biological target: CSNK1G3 (Homo sapiens, UniProt Q9Y6M4)
[12] = biological target: EPHA2 (Homo sapiens, UniProt P29317)
[13] = biological target: MAP2K6 (Homo sapiens, UniProt P52564)
[14] = biological target: FN3KRP (Homo sapiens, UniProt Q9HA64)
[15] = biological target: LIMK1 (Homo sapiens, UniProt P53667)
[16] = biological target: FRK (Homo sapiens, UniProt P42685)
FRK, sequence (P42685 whole entry): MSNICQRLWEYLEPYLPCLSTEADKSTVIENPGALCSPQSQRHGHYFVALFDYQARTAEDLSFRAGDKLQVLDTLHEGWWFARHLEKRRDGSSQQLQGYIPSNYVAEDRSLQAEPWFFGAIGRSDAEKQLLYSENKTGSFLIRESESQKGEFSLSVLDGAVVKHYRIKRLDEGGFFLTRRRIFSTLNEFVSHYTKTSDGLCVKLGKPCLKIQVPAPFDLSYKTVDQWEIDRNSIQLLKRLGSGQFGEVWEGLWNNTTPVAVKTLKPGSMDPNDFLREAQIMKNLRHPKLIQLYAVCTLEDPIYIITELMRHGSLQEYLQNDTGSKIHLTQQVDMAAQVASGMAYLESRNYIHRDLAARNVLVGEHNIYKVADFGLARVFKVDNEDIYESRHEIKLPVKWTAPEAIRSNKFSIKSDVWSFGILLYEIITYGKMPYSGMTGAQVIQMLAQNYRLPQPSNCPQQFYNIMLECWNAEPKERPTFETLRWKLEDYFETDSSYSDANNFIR

[17] = biological target: TESK1 (Homo sapiens, UniProt Q15569)
[18] = biological target: MAPKAPK3 (Homo sapiens, UniProt Q16644)
MAPKAPK3, sequence (Q16644 whole entry): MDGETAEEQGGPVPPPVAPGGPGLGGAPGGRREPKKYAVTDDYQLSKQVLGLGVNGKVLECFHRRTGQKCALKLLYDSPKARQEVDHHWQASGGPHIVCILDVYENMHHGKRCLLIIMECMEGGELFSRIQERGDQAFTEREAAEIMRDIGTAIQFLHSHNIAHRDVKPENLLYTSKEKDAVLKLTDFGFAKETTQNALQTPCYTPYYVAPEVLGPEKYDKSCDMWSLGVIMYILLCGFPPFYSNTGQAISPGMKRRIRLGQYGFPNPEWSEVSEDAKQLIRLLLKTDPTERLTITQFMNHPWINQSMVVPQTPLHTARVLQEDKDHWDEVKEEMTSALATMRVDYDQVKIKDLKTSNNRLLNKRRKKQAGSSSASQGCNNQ

[19] = biological target: CIT (Homo sapiens, UniProt O14578)
CIT, sequence (O14578 whole entry): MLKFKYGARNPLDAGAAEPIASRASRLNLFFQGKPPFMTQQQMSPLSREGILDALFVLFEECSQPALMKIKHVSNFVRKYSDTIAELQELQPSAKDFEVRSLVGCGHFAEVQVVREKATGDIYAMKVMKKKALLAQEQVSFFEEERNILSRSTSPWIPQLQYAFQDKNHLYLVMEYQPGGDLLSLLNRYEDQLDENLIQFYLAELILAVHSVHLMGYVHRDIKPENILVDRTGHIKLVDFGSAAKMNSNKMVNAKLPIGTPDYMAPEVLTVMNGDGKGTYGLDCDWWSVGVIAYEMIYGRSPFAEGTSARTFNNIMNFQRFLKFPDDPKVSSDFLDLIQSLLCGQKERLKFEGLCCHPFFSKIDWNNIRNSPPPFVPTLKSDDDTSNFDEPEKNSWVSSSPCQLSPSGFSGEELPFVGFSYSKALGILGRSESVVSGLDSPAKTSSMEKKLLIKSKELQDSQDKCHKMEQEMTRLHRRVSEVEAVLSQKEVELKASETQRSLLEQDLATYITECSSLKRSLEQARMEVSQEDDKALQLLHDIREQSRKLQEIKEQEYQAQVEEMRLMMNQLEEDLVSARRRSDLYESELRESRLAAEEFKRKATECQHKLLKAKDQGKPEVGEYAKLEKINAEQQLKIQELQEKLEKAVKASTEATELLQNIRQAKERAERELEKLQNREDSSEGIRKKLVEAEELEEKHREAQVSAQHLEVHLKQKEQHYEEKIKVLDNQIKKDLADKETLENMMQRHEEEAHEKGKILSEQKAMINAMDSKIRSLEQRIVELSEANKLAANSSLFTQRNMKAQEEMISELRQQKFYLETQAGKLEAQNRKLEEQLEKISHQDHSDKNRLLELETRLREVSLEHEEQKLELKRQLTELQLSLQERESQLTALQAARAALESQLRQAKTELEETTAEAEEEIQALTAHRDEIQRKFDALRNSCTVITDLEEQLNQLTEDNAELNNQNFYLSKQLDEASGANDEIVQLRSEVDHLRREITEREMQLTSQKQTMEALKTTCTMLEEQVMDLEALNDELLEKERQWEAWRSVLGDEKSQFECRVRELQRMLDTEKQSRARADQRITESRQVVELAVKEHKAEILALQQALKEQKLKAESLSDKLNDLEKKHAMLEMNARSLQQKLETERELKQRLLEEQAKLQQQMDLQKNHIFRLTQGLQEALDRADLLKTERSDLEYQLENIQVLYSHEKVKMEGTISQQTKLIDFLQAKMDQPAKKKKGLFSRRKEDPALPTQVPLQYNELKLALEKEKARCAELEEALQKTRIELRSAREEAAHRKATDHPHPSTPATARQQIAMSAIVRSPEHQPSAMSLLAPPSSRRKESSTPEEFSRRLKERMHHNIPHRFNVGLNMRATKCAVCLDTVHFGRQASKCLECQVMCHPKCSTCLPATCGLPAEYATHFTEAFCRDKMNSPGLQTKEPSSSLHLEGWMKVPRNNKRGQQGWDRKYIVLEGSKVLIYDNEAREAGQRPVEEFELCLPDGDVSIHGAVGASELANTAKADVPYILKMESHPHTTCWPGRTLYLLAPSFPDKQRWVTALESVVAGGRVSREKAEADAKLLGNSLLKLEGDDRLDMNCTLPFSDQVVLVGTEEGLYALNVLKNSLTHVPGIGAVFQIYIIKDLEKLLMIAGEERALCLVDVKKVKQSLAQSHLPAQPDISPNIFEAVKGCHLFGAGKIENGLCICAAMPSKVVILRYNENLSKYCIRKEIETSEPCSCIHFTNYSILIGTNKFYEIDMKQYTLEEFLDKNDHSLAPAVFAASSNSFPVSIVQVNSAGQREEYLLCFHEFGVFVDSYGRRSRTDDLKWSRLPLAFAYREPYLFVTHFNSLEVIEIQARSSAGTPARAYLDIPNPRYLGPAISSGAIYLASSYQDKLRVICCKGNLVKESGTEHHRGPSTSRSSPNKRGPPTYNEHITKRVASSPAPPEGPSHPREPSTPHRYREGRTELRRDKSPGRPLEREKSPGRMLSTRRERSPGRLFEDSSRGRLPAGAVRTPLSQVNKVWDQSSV

[20] = biological target: ULK1 (Homo sapiens, UniProt O75385)
[21] = biological target: MERTK (Homo sapiens, UniProt Q12866)

Measured: IC50

COc1ccccc1-c1n[nH]c2nc(N[C@H]3CC[C@H](NS(=O)(=O)CCC(F)(F)F)CC3)nc(OC)c12 [compound 31, 3,3,3-Trifluoro-N-(trans-4-((4-methoxy-3-(2-methoxyphenyl)-1H-pyrazolo[3,4-d]pyrimidin-6-yl)amino)cyclohexyl)propane-1-sulfonamide]
≥ 20 µM: all assays above

Reference: paper PMC6407917, “Identification of GSK3186899/DDD853651 as a Preclinical Development Candidate for the Treatment of Visceral Leishmaniasis” (Journal of Medicinal Chemistry, 2018)
